# Source: patent US6864253B2, “Benzo[4,5]thieno[2,3-c]pyridine and Benzo[4,5]furo[2,3-c]pyridine Derivatives Useful as Inhibitors of Phosphodiesterase” (Orth-McNeil Pharmaceutical, Inc., priority 2000, dated 2005)
# Read-outs that look alike come from different tables or passages of the source.
# What was measured:
# PDEV [1] = molecular target: T1, PDEV (Oryctolagus cuniculus, UniProt G1SX67); assay: Cyclic nucleotide phosphodiesterase (PDE) assay, inhibition of PDEV isolated from rabbit tissue; type: biochemical; conditions: for inhibition at 10 µM / % Inh @ 10 μM (rabbit) / % INH @ 10 μM (rabbit): 10 μM test compound, rabbit PDEV
# Experimental: Briefly, rabbit or human tissues were homogenized in an ice-cold buffer solution containing 20 mM HEPES (pH 7.2), 0.25M sucrose, 1 mM EDTA, and 1 mM phenylmethylsulphonyl fluoride (PMSF). The homogenates were centrifuged at 100,000 g for 60 minutes at 4° C. The supernatant was filtered through […] filter and loaded on a Pharmacia Mono Q anion exchange column (1 ml bed volume) that was equilibrated with 20 mM HEPES, 1 mM EDTA and 0.5 mM PMSF. […] The fractions comprising various PDE activities were pooled separately and used in later studies.
# (§1) The assays were adapted to a 96-well format. The enzyme was assayed in 5 mM MgCl2, 15 mM Tris HCl (pH 7.4), 0.5 mg/ml bovine serum albumin, 1 μM cGMP or cAMP, 0.1 μCi [^3H]-cGMP or [^3H]-cAMP, and 2-10 μl of column elution. The total volume of the assay was 100 μl. The reaction mixture was incubated at 30° C. for 30 minutes. The reaction was stopped by boiling for 1 minute and then cooled down on ice. The resulting [^3H] 5′-mononucleotides were further converted to uncharged [^3H]-nucleosides by adding 25 μl 1 mg/ml snake venom (Ophiophagus hannah) and incubating at 30° C. for 10 minute. The reaction was stopped by the addition of 1 ml Bio-Rad AG1-X2 resin slurry (1:3). All the charged nucleotides were bound by the resin and only the uncharged [^3H]-nucleosides remained in the supernatant after centrifuging. An aliquot of 200 μl was taken and counted by liquid scintillation. PDE activity was expressed as pmol cyclic nucleotide hydrolyzed/min/ml of enzyme preparation.
# Inhibitor studies were carried out in assay buffer with a final concentration of 10% DMSO.
# PDEV [2] = molecular target: T2, PDEV (Homo sapiens, UniProt O76074); assay: Cyclic nucleotide phosphodiesterase (PDE) assay, inhibition of PDEV isolated from human tissue; type: biochemical; conditions: footnote a: tested using human tissue; for IC50: PDEV
# T2 construct: rabbit or human tissues were homogenized in an ice-cold buffer solution; from tissue; host or cells: human tissue
# Experimental: PDEV was isolated from rabbit and human tissues according to the protocol described by Boolell et al. (Boolell, M., Allen, M. J., Ballard, S. A., Ge[o-Attee, S., Muirhead, G. J., Naylor, A. M., Osterloh, I. H., and Gingell, C) in International Journal of Impotence Research 1996 8, 47-52 with minor modifications.
# Briefly, rabbit or human tissues were homogenized in an ice-cold buffer solution containing 20 mM HEPES (pH 7.2), 0.25M sucrose, 1 mM EDTA, and 1 mM phenylmethylsulphonyl fluoride (PMSF). The homogenates were centrifuged at 100,000 g for 60 minutes at 4° C. The supernatant was filtered through […] filter and loaded on a Pharmacia Mono Q anion exchange column (1 ml bed volume) that was equilibrated with 20 mM HEPES, 1 mM EDTA and 0.5 mM PMSF. After washing out unbound proteins, the enzymes were eluted with a linear gradient of 100-600 mM NaCl in the same buffer (35 to 50 ml total, depending on the tissue. Enzymes from the skeletal muscle, corpus cavernosum, retina, heart and platelet were eluted with 35, 40, 45, 50, and 50 ml respectively.) The column was run at a flow rate of 1 ml/min and 1 ml fractions were collected. The fractions comprising various PDE activities were pooled separately and used in later studies.
# The PDE assay was carried out as described by Thompson and Appleman in Biochemistry 1971 10, 311-316 with minor modifications, as noted below.
# as §1
# Inhibitor studies were carried out in assay buffer with a final concentration of 10% DMSO. Under these conditions, the hydrolysis of product increased with time and enzyme concentration in a linear fashion.
# PDEV [3] = molecular target: T1, PDEV; assay: In vitro determination of Ki for phosphodiesterase inhibitors (IC50/Ki, 30 nM 3H-cGMP); type: biochemical; conditions: printed in the % INH column as Ki value
# Experimental: The assay was adapted to a 96-well format. Phosphodiesterase was assayed in 5 mM MgCl2, 15 mM Tris HCl (pH 7.4), 0.5 mg/ml bovine serum albumin, 30 nM ^3H-cGMP and test compound at various concentrations. […] For all measurements, the test compound was dissolved and diluted in 100% DMSO (2% DMSO in assay). The total volume of the assay was 100 μl. The reaction mixture was incubated at 30° C. for 90 minutes. The reaction was stopped by boiling for 1 minute and then immediately cooled by transfer to an ice bath. To each well was then added 25 μl 1 mg/ml snake venom (Ophiophagus hannah) and the reaction mixture incubating at 30° C. for 10 minute. The reaction was stopped by the addition of 1 ml Bio-Rad AG1-X2 resin slurry (1:3). An aliquot of 200 μl was taken and counted by liquid scintillation.
# The % inhibition of the maximum substrate conversion (by the enzyme in the absence of inhibitor) was calculated for each test compound concentration. Using GraphPad Prism′s nonlinear regression analysis (sigmoidal dose response), the % inhibition vs log of the test compound concentration was plotted to determine the IC50. Under conditions where substrate concentration <<Km of the enzyme (Km=substrate concentration at which half of the maximal velocity of the enzyme is achieved), Ki is equivalent to the IC50 value. […]
# erectile dysfunction = conditions: cited from earlier work
# [4] = read-out: % INH @ 10 μM (rabbit)
compound,measurement,setting,value
"COc1ccc(-c2cnc(N3CCc4c([nH]c5ccccc45)C3c3ccc4c(c3)OCO4)nc2)cc1OC (stereo not drawn) [Cmpd 7, 1-(3,4-Methylenedioxyphenyl)-2-[5-(3,4-dimethoxyphenyl)pyrimidin-2-yl]-2,3,4,9-tetrahydro-1H-β-carboline]",inhibition at 10 µM,PDEV [1]; read-out: % Inh @ 10 μM (rabbit),91%
same,melting point,,173 to 175 °C
CC(C)(C)c1cc(C(=O)N2CCc3c([nH]c4ccccc34)C2c2ccc([N+](=O)[O-])cc2)n(Cc2ccccc2)n1 (stereo not shown) [Cmpd 142],% Inh @ 10 μM (rabbit),PDEV [1],−5%
O=S(=O)(c1ccccc1)c1ccc(S(=O)(=O)N2CCc3c([nH]c4ccccc34)C2c2ccc3c(c2)OCO3)s1 (stereo not shown) [Cmpd 145],% Inh @ 10 μM (rabbit),PDEV [1],43%
O=S(=O)(c1ccccc1)c1ccsc1S(=O)(=O)N1CCc2c([nH]c3ccccc23)C1c1ccc2c(c1)OCO2 (stereo not shown) [Cmpd 146],% Inh @ 10 μM (rabbit),PDEV [1],35%
CN(C)CCn1c2c(c3ccccc31)CCN(C(=O)c1cc3ccccc3o1)C2c1ccc2c(c1)OCO2 (stereo not shown) [Cmpd 147],inhibition at 10 µM,PDEV [1]; [4],52%
COc1ccc(-c2cnc(N3CCc4c(n(CCN5CCCC5)c5ccccc45)C3c3ccc4c(c3)OCO4)nc2)cc1 (stereo not shown) [Cmpd 148],inhibition at 10 µM,PDEV [1]; [4],66%
O=C(c1ccc(-c2ccccc2)o1)N1CCc2c([nH]c3ccccc23)C1c1ccc2c(c1)OCO2 (stereo not shown) [Cmpd 149],inhibition at 10 µM,PDEV [1]; [4],80%
c1ccc2oc(N3CCc4c(n(-c5nc6ccccc6o5)c5ccccc45)C3c3ccc4c(c3)OCO4)nc2c1 (stereo not shown) [Cmpd 150],% INH @ 10 μM (rabbit),PDEV [1],4%
c1ccc2oc(N3CCc4c([nH]c5ccccc45)C3c3ccc4c(c3)OCO4)nc2c1 (stereo not shown) [Cmpd 151],inhibition at 10 µM,PDEV [1]; [4],95%
CN(C)CCn1c2c(c3ccccc31)CCN(C(=O)c1ccc(-c3ccccc3)o1)C2c1ccc2c(c1)OCO2 (stereo not shown) [Cmpd 152],inhibition at 10 µM,PDEV [1]; [4],80%
c1ccc(-c2cnc(N3CCc4c([nH]c5ccccc45)C3c3ccc4c(c3)OCO4)nc2)nc1 (stereo not shown) [Cmpd 153],inhibition at 10 µM,PDEV [1]; [4],95%
CS(=O)(=O)c1ccc(-c2cnc(N3CCc4c(n(CCN5CCCC5)c5ccccc45)C3c3ccc4c(c3)OCO4)nc2)c([N+](=O)[O-])c1 (stereo not shown) [Cmpd 154],inhibition at 10 µM,PDEV [1]; [4],97%
CN(C)CCn1c2c(c3ccccc31)CCN(c1nc3ccccc3o1)C2c1ccc2c(c1)OCO2 (stereo not shown) [Cmpd 155],IC50,PDEV [1],9.2 µM
same,inhibition at 10 µM,PDEV [1]; [4],57%
COc1ccc(-c2cnc(N3CC(=O)c4c([nH]c5ccccc45)C3c3ccc4c(c3)OCO4)nc2)cc1OC (stereo not shown) [Cmpd 157],IC50,PDEV [2],0.0087 µM
"COc1ccc(-c2cnc(N3CC(O)c4c([nH]c5ccccc45)C3c3ccc4c(c3)OCO4)nc2)cc1 (stereo not drawn) [Cmpd 158, 1-(3,4-Methylenedioxy-phenyl)-2-[5-(4-methoxyphenyl)-pyrimidin-2-yl]-4-hydoxy-2,3,4,9-tetrahydro-1H-β-carboline]",% INH @ 10 μM (rabbit),PDEV [1]; 10 µM,49%
COc1ccc(-c2cnc(N3CC(=O)c4c([nH]c5ccccc45)C3c3ccc4c(c3)OCO4)nc2)cc1 (stereo not shown) [Cmpd 162],IC50,PDEV [2],0.024 µM
COc1ccc(-c2cnc(N3CC(O)c4c([nH]c5ccccc45)C3c3ccc4c(c3)OCO4)nc2)cc1 (stereo not shown) [Cmpd 164],% INH @ 10 μM (rabbit),PDEV [1]; 10 µM,82%
Cc1ccc(-c2cnc(N3CCc4c(n(-c5ncc(-c6ccc(C)cc6)cn5)c5ccccc45)C3c3ccc4c(c3)OCO4)nc2)cc1 (stereo not shown) [Cmpd 166],% INH @ 10 μM (rabbit),PDEV [1],58%
c1cnc(N2CCc3c([nH]c4ccccc34)C2c2ccc3c(c2)OCO3)nc1 (stereo not shown) [Cmpd 168],IC50,PDEV [2],2.15 µM
c1ccc2[nH]c(N3CCc4c([nH]c5ccccc45)C3c3ccc4c(c3)OCO4)nc2c1 (stereo not shown) [Cmpd 172],% INH @ 10 μM,PDEV [2]; 10 μM test compound,44^a %
COc1ccc(-c2cnc(N3CCc4c([nH]c5ccccc45)C3c3ccc4c(c3)CCO4)nc2)cc1 (stereo not shown) [Cmpd 174],IC50,PDEV [2],0.15 µM
c1ccc2c3c([nH]c2c1)C(c1ccc2c(c1)CCO2)N(c1ncc(-c2ccc(OCCN4CCCC4)cc2)cn1)CC3 (stereo not shown) [Cmpd 178],% INH @ 10 μM (rabbit),PDEV [1],37%
c1ccc2c3c([nH]c2c1)C(c1ccc2c(c1)CCO2)N(c1ncc(-c2ccc(OCCN4CCOCC4)cc2)cn1)CC3 (stereo not shown) [Cmpd 180],% INH @ 10 μM (rabbit),PDEV [1],40%
c1ccc(-c2cnc(N3CCc4c([nH]c5ccccc45)C3c3ccc4c(c3)OCO4)nc2)nc1 (stereo not shown) [Cmpd 183],IC50,PDEV [2],0.122 µM
COc1ccc(-c2cnc(N3CCc4c([nH]c5ccccc45)C3c3ccc4c(c3)OCCO4)nc2)cc1 (stereo not shown) [Cmpd 184],IC50,PDEV [2],0.64 µM
"Cc1ncc(-c2cnc(N3CCc4c([nH]c5ccccc45)C3c3ccc4c(c3)CCO4)nc2)n1C (stereo not drawn) [Cmpd 190, 1-(2,3-Dihydro-benzofuran-5-yl)-2-[5-(2,3-dimethyl-3H-imidazol-4-yl)-pyrimidin-2-yl]-2,3,4,9-tetrahydro-1H-β-carboline]",Ki,PDEV [3],0.0142 µM
"c1ccc(-c2ccc(N3CCc4c([nH]c5ccccc45)C3c3ccc4c(c3)CCO4)nc2)nc1 (stereo not drawn) [Cmpd 191, 2-[2,3′]Bipyridinyl-6′-yl-1-(2,3-dihydro-benzofuran-5-yl)-2,3,4,9-tetrahydro-1H-β-carboline]",Ki,PDEV [3],0.00069 µM
"CCCc1nn(C)c2c(=O)[nH]c(-c3cc(S(=O)(=O)N4CCN(C)CC4)ccc3OCC)nc12 [sildenafil, 5-[2-ethoxy-5-(4-methylpiperazin-1-ylsulphonyl)phenyl]-1-methyl-3-n-propyl-6,7-dihydro-1H-pyrazolo[4,3-d]pyrimidin-7-one]","improved sexual function, share of men",erectile dysfunction; men who suffer from ED of psychogenic or organic etiology,about 70%
same,"improved erections, share of patients","erectile dysfunction; patients who had undergone a radical prostatectomy, 15% on placebo",43%
